Results from ChEMBL document CHEMBL1136534, “Dihydroquinolines with amine-containing side chains as potent n-NOS inhibitors” (Bioorg Med Chem Lett, 2003).

What was measured:
[1] = molecular target: Nitric oxide synthase, inducible (Homo sapiens, UniProt P35228); assay: Inhibitory concentration against human Inducible nitric oxide synthase
Nitric oxide synthase 1 = Nitric oxide synthase 1 (Homo sapiens, UniProt P29475); assay: Inhibitory concentration against recombinant human (neuronal nitric oxide synthase) n-NOS
Chain of Nitric oxide synthase 1 (P29475 whole entry): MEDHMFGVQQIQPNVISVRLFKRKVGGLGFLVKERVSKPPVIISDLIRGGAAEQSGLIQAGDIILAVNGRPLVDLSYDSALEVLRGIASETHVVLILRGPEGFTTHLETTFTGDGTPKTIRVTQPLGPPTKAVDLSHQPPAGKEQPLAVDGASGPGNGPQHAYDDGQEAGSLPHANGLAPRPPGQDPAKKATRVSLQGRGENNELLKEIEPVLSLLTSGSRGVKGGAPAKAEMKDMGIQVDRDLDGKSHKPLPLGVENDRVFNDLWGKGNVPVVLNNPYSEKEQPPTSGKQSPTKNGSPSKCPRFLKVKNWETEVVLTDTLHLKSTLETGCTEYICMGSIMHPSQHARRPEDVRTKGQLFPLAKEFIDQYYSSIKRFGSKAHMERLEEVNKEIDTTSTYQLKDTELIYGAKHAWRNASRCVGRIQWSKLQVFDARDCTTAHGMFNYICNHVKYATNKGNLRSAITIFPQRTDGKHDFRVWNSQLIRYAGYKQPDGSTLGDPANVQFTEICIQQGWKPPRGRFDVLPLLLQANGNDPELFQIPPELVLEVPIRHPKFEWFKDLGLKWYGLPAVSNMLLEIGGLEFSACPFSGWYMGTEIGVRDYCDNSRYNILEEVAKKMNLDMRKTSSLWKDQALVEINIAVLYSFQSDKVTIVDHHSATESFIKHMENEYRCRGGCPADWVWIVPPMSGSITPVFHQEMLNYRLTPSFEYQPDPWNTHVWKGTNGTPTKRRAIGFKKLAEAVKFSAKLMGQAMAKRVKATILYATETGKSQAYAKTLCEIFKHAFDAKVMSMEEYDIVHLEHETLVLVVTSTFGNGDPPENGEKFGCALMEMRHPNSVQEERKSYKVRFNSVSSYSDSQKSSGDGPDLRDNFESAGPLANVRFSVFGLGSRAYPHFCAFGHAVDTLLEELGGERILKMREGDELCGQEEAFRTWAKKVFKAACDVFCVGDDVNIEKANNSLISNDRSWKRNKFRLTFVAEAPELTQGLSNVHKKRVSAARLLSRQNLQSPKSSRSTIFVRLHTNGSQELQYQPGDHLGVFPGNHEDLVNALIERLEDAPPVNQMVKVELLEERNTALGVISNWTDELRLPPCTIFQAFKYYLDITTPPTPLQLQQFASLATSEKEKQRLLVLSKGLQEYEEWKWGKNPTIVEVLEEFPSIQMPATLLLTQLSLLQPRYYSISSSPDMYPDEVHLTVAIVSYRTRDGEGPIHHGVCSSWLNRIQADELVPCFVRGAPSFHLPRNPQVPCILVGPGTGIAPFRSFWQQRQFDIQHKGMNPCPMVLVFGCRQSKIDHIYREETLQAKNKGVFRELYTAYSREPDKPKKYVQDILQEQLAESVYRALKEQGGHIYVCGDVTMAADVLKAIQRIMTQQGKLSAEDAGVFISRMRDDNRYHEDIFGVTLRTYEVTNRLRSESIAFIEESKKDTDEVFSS

Nitric oxide synthase 3 = molecular target: T1, Nitric oxide synthase 3 (Homo sapiens, UniProt P29474); assay: Inhibitory concentration against recombinant human Endothelial nitric oxide synthase
T1 sequence (P29474 whole entry): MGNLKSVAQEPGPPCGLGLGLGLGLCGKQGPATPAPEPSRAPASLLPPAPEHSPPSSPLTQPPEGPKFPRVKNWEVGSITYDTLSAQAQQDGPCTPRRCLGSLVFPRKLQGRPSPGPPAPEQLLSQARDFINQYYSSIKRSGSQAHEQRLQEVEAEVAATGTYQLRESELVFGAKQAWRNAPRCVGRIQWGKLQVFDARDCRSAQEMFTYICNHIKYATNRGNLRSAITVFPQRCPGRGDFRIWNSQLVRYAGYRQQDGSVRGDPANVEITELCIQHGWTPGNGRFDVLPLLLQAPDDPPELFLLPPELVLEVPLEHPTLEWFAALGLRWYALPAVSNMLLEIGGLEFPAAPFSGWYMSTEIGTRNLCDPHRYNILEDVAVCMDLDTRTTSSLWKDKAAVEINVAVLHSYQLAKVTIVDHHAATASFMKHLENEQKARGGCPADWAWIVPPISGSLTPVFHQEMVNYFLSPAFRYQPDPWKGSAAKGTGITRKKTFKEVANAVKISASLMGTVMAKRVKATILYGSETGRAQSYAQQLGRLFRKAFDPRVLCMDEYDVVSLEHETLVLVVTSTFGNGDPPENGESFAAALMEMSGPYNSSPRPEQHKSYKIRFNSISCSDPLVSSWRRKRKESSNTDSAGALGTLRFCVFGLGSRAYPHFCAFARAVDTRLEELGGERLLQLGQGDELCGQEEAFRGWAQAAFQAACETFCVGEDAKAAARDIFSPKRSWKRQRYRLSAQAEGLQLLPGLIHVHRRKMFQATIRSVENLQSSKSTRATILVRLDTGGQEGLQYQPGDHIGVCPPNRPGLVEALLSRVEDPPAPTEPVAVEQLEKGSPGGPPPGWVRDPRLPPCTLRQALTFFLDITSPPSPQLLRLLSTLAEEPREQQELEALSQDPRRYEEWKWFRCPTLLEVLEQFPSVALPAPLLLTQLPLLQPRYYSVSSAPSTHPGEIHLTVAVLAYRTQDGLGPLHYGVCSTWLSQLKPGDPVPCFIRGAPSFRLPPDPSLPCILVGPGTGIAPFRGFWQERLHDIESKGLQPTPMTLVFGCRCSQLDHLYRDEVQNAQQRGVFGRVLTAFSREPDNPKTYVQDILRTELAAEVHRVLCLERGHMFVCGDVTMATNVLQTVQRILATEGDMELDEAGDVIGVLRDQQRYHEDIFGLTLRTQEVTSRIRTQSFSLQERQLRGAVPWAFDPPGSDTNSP

Chain of Nitric oxide synthase, inducible (P35228 whole entry): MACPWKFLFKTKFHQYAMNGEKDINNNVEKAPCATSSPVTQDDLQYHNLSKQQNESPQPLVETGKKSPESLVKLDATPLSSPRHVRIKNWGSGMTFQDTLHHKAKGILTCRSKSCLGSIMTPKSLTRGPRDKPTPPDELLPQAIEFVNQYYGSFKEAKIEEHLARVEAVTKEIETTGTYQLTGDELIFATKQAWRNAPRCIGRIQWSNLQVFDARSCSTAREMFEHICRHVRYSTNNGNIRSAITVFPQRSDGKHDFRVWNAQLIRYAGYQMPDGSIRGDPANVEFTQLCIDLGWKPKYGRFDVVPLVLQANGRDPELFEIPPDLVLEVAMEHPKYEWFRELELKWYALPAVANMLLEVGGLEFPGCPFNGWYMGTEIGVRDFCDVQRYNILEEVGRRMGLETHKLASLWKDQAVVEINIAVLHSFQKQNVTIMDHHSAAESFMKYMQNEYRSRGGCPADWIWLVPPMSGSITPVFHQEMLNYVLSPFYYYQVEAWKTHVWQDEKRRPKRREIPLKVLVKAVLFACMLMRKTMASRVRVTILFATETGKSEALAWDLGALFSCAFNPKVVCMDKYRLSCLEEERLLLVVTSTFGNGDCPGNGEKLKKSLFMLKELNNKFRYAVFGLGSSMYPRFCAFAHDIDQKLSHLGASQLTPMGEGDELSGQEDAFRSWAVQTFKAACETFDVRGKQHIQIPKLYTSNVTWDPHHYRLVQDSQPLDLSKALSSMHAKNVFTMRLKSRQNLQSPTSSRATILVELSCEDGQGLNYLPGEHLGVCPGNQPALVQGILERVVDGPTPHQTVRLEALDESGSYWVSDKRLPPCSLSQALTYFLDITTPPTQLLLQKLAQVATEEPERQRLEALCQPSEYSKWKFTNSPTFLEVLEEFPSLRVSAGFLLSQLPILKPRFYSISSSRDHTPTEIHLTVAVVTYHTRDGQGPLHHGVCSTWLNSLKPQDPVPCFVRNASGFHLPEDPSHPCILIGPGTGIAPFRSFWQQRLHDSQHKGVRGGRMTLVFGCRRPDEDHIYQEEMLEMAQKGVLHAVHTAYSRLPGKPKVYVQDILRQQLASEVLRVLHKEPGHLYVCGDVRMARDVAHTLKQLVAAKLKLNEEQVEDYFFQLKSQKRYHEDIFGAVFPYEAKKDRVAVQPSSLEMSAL

CNCCOc1ccc2c(c1)N=C(N)[C@@H]1CCC[C@H]21
IC50 [1]: 3900 nM | IC50 (Nitric oxide synthase 1): 170 nM | IC50 (Nitric oxide synthase 3): 52000 nM

N=C(Nc1ccc(CCNCc2cccc(Cl)c2)cc1)c1cccs1
IC50 (Nitric oxide synthase 1): 35 nM | IC50 (Nitric oxide synthase 3): 3500 nM

NC1=Nc2cc(CNCc3cccc(Cl)c3)ccc2[C@H]2CCC[C@@H]12
IC50 [1]: 950 nM | IC50 (Nitric oxide synthase 1): 140 nM | IC50 (Nitric oxide synthase 3): 9600 nM

NC1=Nc2cc(CCNCc3cccc(Cl)c3)c(Cl)cc2[C@H]2CCC[C@@H]12
IC50 [1]: 1600 nM | IC50 (Nitric oxide synthase 1): 170 nM | IC50 (Nitric oxide synthase 3): 8700 nM

NC1=Nc2cc(CCCNCc3cccc(Cl)c3)ccc2[C@H]2CCC[C@@H]12
IC50 [1]: 580 nM | IC50 (Nitric oxide synthase 1): 42 nM | IC50 (Nitric oxide synthase 3): 9400 nM

NC1=Nc2cc(CCNCc3cccc(Cl)c3)ccc2[C@H]2CCC[C@@H]12
IC50 [1]: 530 nM | IC50 (Nitric oxide synthase 1): 48 nM | IC50 (Nitric oxide synthase 3): 6700 nM
